Results reported in PubChem BioAssay (NCI).
“And” between values parts separate entries of the source, which are not always exact repeats. Identical values can stand only once.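 Interpolation was linear, between the two tested concentrations surrounding the appropriate level; five concentrations were tested over 48 hours in 96-well plates. Abbreviation: GI50, concentration required for 50% inhibition of growth. TGI: total growth inhibition.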

Tests used:
Experiment in all cases: inhibition of tumour cell growth, NCI panel, 48 h
[1] = test system: CCRF-CEM leukemia
[2] = test system: HCC-2998 colon
[3] = test system: HCT-116 colon
[4] = test system: HL-60(TB) leukemia
[5] = test system: MALME-3M melanoma
[6] = test system: OVCAR-5 ovarian
[7] = test system: SN12C renal
[8] = test system: SR leukemia
[9] = test system: HCT-15 colon
[10] = test system: RPMI-8226 leukemia

Structure (SMILES)	GI50 [1]	TGI [1]	TGI [2]	GI50 [3]	TGI [3]	GI50 [4]	TGI [4]	GI50 [5]	TGI [5]	GI50 [6]	TGI [6]	GI50 [7]	TGI [7]	GI50 [8]	TGI [8]	GI50 [2]	GI50 [9]	TGI [9]	GI50 [10]	TGI [10]
NC(=O)c1c(NC(=O)c2ccc(C(F)(F)F)cc2Cl)sc2c1CCC(=O)C2	0.146 µM	> 100 µM	3.36 µM	0.302 µM	1.42 µM	0.273 µM	1.09 µM	0.292 µM	1.39 µM	0.468 µM	2.33 µM	0.36 µM	2.04 µM	0.305 µM	> 100 µM	–	–	–	–	–
Nc1ccccc1SC(CC(=O)c1ccccc1)c1c(Cl)cccc1Cl (stereo unspecified)	2.67 µM	8.49 µM	5.73 µM	1.81 µM	4.56 µM	3.36 µM	11.7 µM	10.8 µM	25.3 µM	4.29 µM	15.7 µM	2.94 µM	11.5 µM	1.45 µM	5.79 µM	2.61 µM	2.08 µM	5.92 µM	1.9 µM	5.35 µM
O=C(O)CC(CC(=O)O)n1cccc1	–	> 100 µM	–	–	> 100 µM	–	> 100 µM	–	–	–	> 100 µM	–	> 100 µM	–	> 100 µM	–	–	> 100 µM	–	> 100 µM
O=[N+]([O-])C(=C1c2ccccc2-c2ccccc21)[N+](=O)[O-]	–	> 100 µM	> 100 µM	–	> 100 µM	–	98.9 µM	–	–	–	> 100 µM	–	> 100 µM	–	> 100 µM	–	–	> 10 µM	–	> 100 µM
CN(C)Cc1c[nH]c2nc[nH]c(=O)c12	–	51 µM	–	–	51.5 µM	–	42.4 µM	–	> 100 µM	–	> 100 µM	–	> 100 µM	–	53.7 µM	–	–	> 100 µM	–	59.4 µM
CN(COC(=O)C(C)(C)C)c1nc(N(C)COC(=O)C(C)(C)C)nc(N(C)COC(=O)C(C)(C)C)n1	–	> 100 µM	> 100 µM	–	39.3 µM	–	63.6 µM	–	98.5 µM	–	> 100 µM	–	> 100 µM	–	> 100 µM	–	–	43.9 µM	–	–
Cc1c(C(=O)Nc2ccc(Oc3ccnc4cc(OCC(C)(C)O)ccc34)c(F)c2)c(=O)n(-c2ccccc2)n1C	–	–	> 100 µM	–	–	–	–	–	–	–	–	–	–	3.66 µM	> 100 µM	> 100 µM	–	–	–	–
COc1ccc(/C(=N/O)c2cc(F)c(F)c(OC)c2F)cc1O	0.528 µM	35.2 µM	> 100 µM	0.393 µM	> 100 µM	–	–	–	–	–	–	0.832 µM	> 100 µM	0.241 µM	34.1 µM	2.01 µM	0.42 µM	> 100 µM	0.43 µM	23.7 µM
O=C1C=CC(=O)N1c1ccc2ccccc2c1	2.09 µM	7.94 µM	32.8 µM	3.93 µM	12.4 µM	7.74 µM	33.5 µM	2.98 µM	8.19 µM	17.9 µM	34 µM	16.6 µM	34.1 µM	2.6 µM	7.33 µM	17.8 µM	16.5 µM	33.1 µM	2 µM	4.97 µM
C=CC(=O)N1CCN(c2nc(OC[C@@H]3CCCN3C)nc3c(F)c(-c4nc(N)cc(C)c4C(F)(F)F)c(Cl)cc23)[C@@H](C)C1	3.08 µM	> 100 µM	2.57 µM	2.04 µM	5.39 µM	2.91 µM	> 100 µM	1.86 µM	3.37 µM	9.68 µM	21.7 µM	1.6 µM	3.62 µM	1.77 µM	4.54 µM	1.25 µM	1.7 µM	3.47 µM	2.49 µM	7.06 µM
Nc1ncnc2c1ncn2C1(CO)OC(CO)C(O)C1O (stereo unspecified)	–	> 100 µM	> 100 µM	–	> 100 µM	–	> 100 µM	–	> 100 µM	–	> 100 µM	–	> 100 µM	–	> 100 µM	–	–	> 100 µM	–	> 100 µM
Cc1nc2sc(C(=O)Nc3cccc4c3OCCO4)c(N)c2cc1C(C)O (stereo unspecified)	3.5 µM	> 100 µM	> 100 µM	5.57 µM	> 100 µM	2.99 µM	13 µM	–	–	43.2 µM	> 100 µM	5.65 µM	> 100 µM	1.18 µM	> 100 µM	13.7 µM	3.26 µM	> 100 µM	4.16 µM	> 100 µM
C[C@H]1CCC/C=C/[C@@H]2C[C@H](O)C[C@H]2[C@H](O)C(O)C(O)C(=O)O1 (stereo partly specified)	2.73 µM	> 25.9 µM	> 22.4 µM	3.38 µM	19 µM	0.251 µM	2.31 µM	1.56 µM	5.57 µM	6.24 µM	> 100 µM	2.66 µM	7.63 µM	1.28 µM	3.66 µM	2.15 µM	–	–	2.66 µM	14.9 µM
O=C1c2ccccc2-n2c1nc1ccc([N+](=O)[O-])cc1c2=O	–	> 100 µM	> 100 µM	–	> 100 µM	–	43.5 µM	–	> 100 µM	–	> 100 µM	–	> 100 µM	–	> 100 µM	–	–	> 100 µM	–	84.4 µM
Cc1ccc(C)c(NC(=O)C(=O)C(C2C(C)CC(=O)C2CC(=O)O)[N+](=O)[O-])c1 (stereo unspecified)	–	> 100 µM	> 100 µM	–	> 100 µM	–	> 100 µM	–	> 100 µM	–	> 100 µM	–	> 100 µM	–	> 100 µM	–	–	> 100 µM	–	> 100 µM
CCCOC(=O)C1C(c2ccc(OC)cc2)NC(c2ccc(OC)cc2)C(C(=O)OCCC)S1(=O)=O (stereo unspecified)	–	–	> 100 µM	> 100 µM	> 100 µM	–	> 100 µM	> 100 µM	> 100 µM	> 100 µM	> 100 µM	> 100 µM	> 100 µM	–	> 100 µM	> 100 µM	> 100 µM	> 100 µM	> 100 µM	> 100 µM
O=C1c2c[n+](Cc3ccccc3)ccc2-c2nc3ccccc3c3ccnc1c23	0.951 µM	2.81 µM	1.74 µM	0.422 µM	1.86 µM	0.72 µM	1.93 µM	0.499 µM	1.02 µM	1.63 µM	10.5 µM	–	–	0.066 µM	3.6 µM	0.609 µM	0.87 µM	6.18 µM	1.06 µM	6.76 µM

Structure (SMILES)	GI50 [1]	TGI [1]	TGI [2]	GI50 [3]	TGI [3]	GI50 [4]	TGI [4]	GI50 [5]	TGI [5]	GI50 [6]	TGI [6]	GI50 [7]	TGI [7]	GI50 [8]	TGI [8]	GI50 [2]	GI50 [9]	TGI [9]	GI50 [10]	TGI [10]
Oc1ccc(Br)cc1C=Nc1ccc(Oc2ccc(N=Cc3cc(Br)ccc3O)cc2)cc1	–	> 19.6 µM	> 19.6 µM	–	> 19.6 µM	–	> 19.6 µM	–	> 19.6 µM	–	> 19.6 µM	–	> 19.6 µM	–	> 19.6 µM	–	–	–	–	> 19.6 µM
O=NN(CC(=O)NNc1ccccc1)CC(=O)NNc1ccccc1	5 µM	> 100 µM	> 100 µM	> 100 µM	> 100 µM	0.534 µM	> 100 µM	42 µM	> 100 µM	> 100 µM	> 100 µM	> 100 µM	> 100 µM	> 25.6 µM	> 100 µM	4.89 µM	12.3 µM	> 100 µM	12.4 µM	> 100 µM
O=C1/C(=C/c2ccccc2)CN(C(=O)/C=C/c2ccccc2)C/C1=C\c1ccccc1	–	9 µM	14.2 µM	–	2.02 µM	–	16.4 µM	–	34.1 µM	–	45.2 µM	–	16 µM	–	4.64 µM	–	–	18.3 µM	–	10.8 µM
Cc1ncc2c(n1)CCC1=C2OS(=O)(=O)CC1N(C)C (stereo unspecified)	–	> 100 µM	–	–	> 100 µM	–	> 100 µM	–	–	–	> 100 µM	–	> 100 µM	–	> 100 µM	–	–	–	–	> 100 µM
COc1ccc(-c2cc(-c3ccco3)c(C#N)c(=O)n2C2OC(COC(C)=O)C(OC(C)=O)C(OC(C)=O)C2OC(C)=O)cc1 (stereo unspecified)	–	> 100 µM	> 100 µM	–	> 100 µM and 21.1 µM	–	–	> 100 µM and 25 µM	> 100 µM	–	> 100 µM	> 100 µM and 18.9 µM	> 100 µM and 55.2 µM	–	> 100 µM	–	> 100 µM and 39 µM	> 100 µM	–	> 100 µM
CCn1cnc(C[C@H](NC(=O)[C@@H](NC(=O)Nc2cc(C(F)(F)F)cc(C(F)(F)F)c2)C(C)(C)C)C(=O)OC)c1	> 10 µM	> 10 µM	> 10 µM	> 10 µM	> 10 µM	> 10 µM	> 10 µM	> 10 µM	> 10 µM	> 10 µM	> 10 µM	> 10 µM	> 10 µM	> 10 µM	> 10 µM	> 10 µM	> 10 µM	> 10 µM	> 10 µM	> 10 µM
COC(=O)c1cc2c3cc(Cl)ccc3[nH]c2c2ncccc12	> 100 µM	> 100 µM	> 100 µM	> 100 µM	> 100 µM	> 100 µM	> 100 µM	> 100 µM	> 100 µM	> 100 µM	> 100 µM	> 100 µM	> 100 µM	> 100 µM	> 100 µM	> 100 µM	> 100 µM	> 100 µM	> 100 µM	> 100 µM
CC1(C)CCOC(Sc2ccccc2)C1 (stereo unspecified)	–	> 100 µM	> 100 µM	–	> 100 µM	–	34.4 µM	–	–	–	–	–	> 100 µM	–	> 100 µM	–	–	> 100 µM	–	91.3 µM
O=C1c2ccccc2C(=O)N1CCN(CCN1C(=O)c2ccccc2C1=O)Cc1ccccc1	–	> 100 µM	–	–	> 100 µM	–	> 100 µM	–	–	–	–	–	> 100 µM	–	> 100 µM	–	–	> 100 µM	–	> 100 µM
CC[C@@]1(O)C(=O)OCc2c1cc1n(c2=O)Cc2cc3c(N)c(OC)ccc3nc2-1	< 0.01 µM	0.0409 µM	0.373 µM	–	–	0.0266 µM	0.187 µM	0.236 µM	4.05 µM	0.0543 µM	0.842 µM	0.0124 µM	0.126 µM	< 0.01 µM	–	0.155 µM	0.283 µM	3.52 µM	0.135 µM	2.32 µM
O=C(NCCc1nccs1)c1cnc2c(S)cccc2c1	1.77 µM	> 100 µM	29.1 µM	1.13 µM	10.2 µM	10.7 µM	70 µM	4.03 µM	52.4 µM	10 µM	41.6 µM	–	–	0.677 µM	> 100 µM	10.5 µM	3.49 µM	88.6 µM	4.15 µM	> 100 µM
O=C1C=C(c2ccccc2)NC1(c1ccccc1)c1cc(-c2ccccc2)[nH]c1-c1ccccc1 (stereo unspecified)	–	> 100 µM	> 100 µM	–	> 100 µM	–	> 100 µM	–	–	–	–	–	> 100 µM	–	> 100 µM	–	–	> 100 µM	–	–
CCOC(=O)c1c(C)n(Cc2ccc(Cl)cc2Cl)c2c1cc(O)c1[nH]c(Cc3ccccc3)nc12	–	–	5.23 µM	2.18 µM	4.76 µM	2.27 µM	5.38 µM	7.26 µM	28.8 µM	3.65 µM	9.36 µM	4 µM	12.1 µM	0.612 µM	2.22 µM	2.41 µM	3.94 µM	18.5 µM	1.92 µM	3.9 µM
COc1ccc(C)cc1-c1ccc(-c2cc(C)ccc2OC)o1	–	> 100 µM	> 100 µM	–	> 100 µM	–	> 100 µM	–	> 100 µM	–	> 100 µM	–	> 100 µM	–	–	–	–	> 100 µM	–	> 100 µM
COc1cc(Br)c(C=Nc2cccc3ccc(OS(=O)(=O)c4ccc([N+](=O)[O-])cc4)cc23)cc1OC	–	> 100 µM	> 100 µM	–	> 100 µM	–	–	–	> 100 µM	–	> 100 µM	–	> 100 µM	–	> 100 µM	–	–	> 100 µM	–	> 100 µM
COc1ccc(C(=O)c2no[n+]([O-])c2C(=O)c2ccc(OC)cc2)cc1	–	–	31.6 µM	1.69 µM	3.05 µM	2.08 µM	4.37 µM	0.82 µM	3.07 µM	10.6 µM	25.7 µM	9.06 µM	22.1 µM	0.726 µM	3.22 µM	17.5 µM	3.98 µM	14.9 µM	2.06 µM	4.85 µM
O=C1C[C@@H]2[C@@H](C=CC23CCCC3)N1O	–	> 100 µM	> 100 µM	–	> 100 µM	–	> 100 µM	–	> 100 µM	–	> 100 µM	–	> 100 µM	–	–	–	–	> 100 µM	–	> 100 µM
